# Source: US6461997B1, “Triazole sulfones having herbicidal activity” (Monsanto Technology LLC, priority 1999, dated 2002)
# Assays:
# [1] = test system: AEGCY (jointed goatgrass); assay: Post-emergence herbicidal activity, cool season; assay type: in vivo, Aegilops cylindrica; settings: abraded plants sprayed at 300, 100, 30 and 10 g/ha; about 14 days after treatment
# How it was run: (§1)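 Greenhouse-grown seedlings were abraded 9–14 days after planting, then sprayed at 300, 100, 30 and 10 g/ha in acetone:water (3,100 l/ha). Grown at 18/13 °C day/night, percent inhibition versus abraded unsprayed controls was scored about 14 days after treatment and GR80 assigned.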
# [2] = test system: AGSST (creeping bentgrass); assay: Post-emergence herbicidal activity, cool season; assay type: in vivo, Agrostis stolonifera; settings: abraded plants sprayed at 300, 100, 30 and 10 g/ha; about 14 days after treatment
# How it was run: as §1
# DIGSA (large crabgrass) = assay: Pre-plant incorporated (PPI) herbicidal activity, warm season; assay type: in vivo, Digitaria sanguinalis; settings: for PPI activity GR80, DIGSA: pre-plant incorporated, lowest tested rate with 80% or greater inhibition, about 14 days
# Protocol: (§2) In another set of tests, the pre-plant incorporated (PPI) activity of compounds of this invention was evaluated on the same species as for the pre-emergence tests described above. In the PPI tests the following procedure, designed to simulate PPI application, was used.
# (§3) A pre-prepared topsoil mixture (described above) was placed in a pot and compacted to a depth of 1.0 to 1.25 cm from the top of the pot. Seeds of each of several monocotyledonous and dicotyledonous annual plant species were placed on top of the soil. A sufficient quantity of soil to cover the seeds and level fill the pot was weighed into an open container. A known amount of the test compound was dissolved or suspended in an organic solvent and applied by spraying to this cover soil. The cover soil was thoroughly mixed to distribute the test compound throughout the cover soil, and was then applied as a cover layer over the seeds. Untreated soil was used as a cover layer for control pots. After treatment the plants were placed in a greenhouse where they received 0.64 cm of overhead irrigation. All subsequent watering consisted of a light overhead mist and/or subirrigation as needed for germination and growth. Tables 9 and 10 below relate to warm season plant species which were placed after pre-emergence treatment in a greenhouse with a 30/21° C. day/night temperature regime. Tables 11 and 12 below relates to cool season plant species placed after pre-emergence treatment in a greenhouse or growth chamber with an 18/13° C. day/night temperature regime. Only the compounds of Examples 1, 6, 8, 11, 13 and 15-20 were included in PPI tests.
# (§4) Approximately 14 days after planting and treating, the plants were observed and herbicidal efficacy recorded as percent inhibition by comparison with untreated plants.
# [3] = test system: LAMPU (purple deadnettle); assay: Pre-emergence herbicidal activity, cool season; assay type: in vivo, Lamium purpureum; settings: lowest tested rate with 80% or greater inhibition; rates 300, 100, 30, 10 g/ha; about 14 days
# How it was run: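 Seeds sown in sterilised fertilised topsoil received surface-applied compound in 50:50 acetone/water, typically at 300, 100, 30 and 10 g/ha, then greenhouse-grown at 30/21° C (warm-season species) or 18/13° C (cool-season species). Percent inhibition versus untreated plants was scored at about 14 days, giving GR80; an asterisk marks activity short of 80% at the top rate.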
# PANDI (fall panicum) = assay: Pre-plant incorporated (PPI) herbicidal activity, warm season; assay type: in vivo, Panicum dichotomiflorum; settings: for PPI activity GR80, PANDI: pre-plant incorporated, lowest tested rate with 80% or greater inhibition, about 14 days
# Protocol: as §2, §3, §4
# [4] = test system: VERPE (creeping speedwell); assay: Pre-plant incorporated (PPI) herbicidal activity, cool season; assay type: in vivo, Veronica persicaria; settings: for PPI activity GR80, VERPE: pre-plant incorporated, lowest tested rate with 80% or greater inhibition, about 14 days; for Percent inhibition VERPE: weed, PPI application
# Protocol: as §2, §3, §4
# ALOMY (blackgrass) = assay: Pre-emergence herbicidal activity, cool season; assay type: in vivo, Alopecurus myosuroides; settings: GR80 = lowest tested rate (300, 100, 30, 10 g/ha) with 80% or greater inhibition; approx. 14 days after treating; 18/13° C.
# How it was run: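 Herbicidal efficacy was judged visually as percent inhibition compared with untreated plants some 14 days after treatment, giving GR80 over doses of 10 to 300 g/ha. Proso millet and crabgrass grew at 30/21 °C; blackgrass and wild buckwheat grew at 18/13 °C.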
# [5] = test system: AGSST (creeping bentgrass); assay: Pre-plant incorporated (PPI) herbicidal activity, cool season; assay type: in vivo, Agrostis stolonifera; settings: for inhibition at 30 g/ha / inhibition at 100 g/ha / inhibition at 300 g/ha / inhibition at 900 g/ha: Agrostis stolonifera, read-out: Percent inhibition AGSST; for inhibition at 30 g/ha / inhibition at 100 g/ha / inhibition at 300 g/ha / inhibition at 900 g/ha / Percent inhibition AGSST: weed, PPI application; for PPI activity GR80, AGSST: pre-plant incorporated, lowest tested rate with 80% or greater inhibition, about 14 days
# Protocol: as §2, §3, §4
# AVEFA (wild oat) = assay: Post-emergence herbicidal activity, cool season; assay type: in vivo, Avena fatua; settings: abraded plants sprayed at 300, 100, 30 and 10 g/ha; about 14 days after treatment
# How it was run: as §1
# [6] = Digitaria sanguinalis, PPI application, 30 g/ha, read-out: Percent inhibition DIGSA
# [7] = Digitaria sanguinalis, PPI application, 100 g/ha, read-out: Percent inhibition DIGSA
# [8] = Digitaria sanguinalis, PPI application, 300 g/ha, read-out: Percent inhibition DIGSA
# [9] = Digitaria sanguinalis, PPI application, 900 g/ha, read-out: Percent inhibition DIGSA
SMILES,"Post-emergence activity GR80, AEGCY [1]","Post-emergence activity GR80, AGSST [2]",inhibition at 30 g/ha (DIGSA (large crabgrass); [6]) [%],inhibition at 100 g/ha (DIGSA (large crabgrass); [7]) [%],inhibition at 300 g/ha (DIGSA (large crabgrass); [8]) [%],inhibition at 900 g/ha (DIGSA (large crabgrass); [9]) [%],"PPI activity GR80, DIGSA (DIGSA (large crabgrass)) [g/ha]","Pre-emergence activity GR80, LAMPU [3]","PPI activity GR80, PANDI (PANDI (fall panicum)) [g/ha]","PPI activity GR80, VERPE [4] [g/ha]",Pre-emergence activity (GR80) ALOMY (ALOMY (blackgrass)) [g/ha],inhibition at 30 g/ha ([5]; 30 g/ha) [%],inhibition at 100 g/ha ([5]; 100 g/ha) [%],inhibition at 300 g/ha ([5]; 300 g/ha) [%],inhibition at 900 g/ha ([5]; 900 g/ha) [%],"PPI activity GR80, AGSST [5] [g/ha]","Post-emergence activity GR80, AVEFA (AVEFA (wild oat))",other results
"CCN(CC)C(=O)n1cnc(S(=O)(=O)C(F)(F)Br)n1 [Example 1, 3-(bromodifluoromethylsulfonyl)-1-(N,N-diethylcarbamoyl)-1,2,4-triazole]",[empty],[empty],95,100,100,100,100,30 g/ha,100,30,300,100,100,100,100,30,[empty],"inhibition at 10 g/ha (DIGSA (large crabgrass); Digitaria sanguinalis, PPI application, 10 g/ha, read-out: Percent inhibition DIGSA): 80%"
"CCSC(F)(F)S(=O)(=O)c1ncn(C(=O)N(CC)CC)n1 [Example 8, 1-(N,N-diethylcarbamoyl)-3-[difluoro(ethylthio)methylsulfonyl]-1,2,4-triazole]",[empty],[empty],100,100,100,100,30,[empty],30,100,100,100,100,100,100,30,[empty],"inhibition at 30 g/ha (PANDI (fall panicum); Panicum dichotomiflorum, PPI application, 30 g/ha, read-out: Percent inhibition PANDI): 95%; inhibition at 100 g/ha (PANDI (fall panicum); Panicum dichotomiflorum, PPI application, 100 g/ha, read-out: Percent inhibition PANDI): 100%; inhibition at 300 g/ha (PANDI (fall panicum); Panicum dichotomiflorum, PPI application, 300 g/ha, read-out: Percent inhibition PANDI): 100%; inhibition at 900 g/ha (PANDI (fall panicum); Panicum dichotomiflorum, PPI application, 900 g/ha, read-out: Percent inhibition PANDI): 100%"
CCN(CC)C(=O)n1cnc(S(=O)(=O)C(F)(F)SCc2ccccc2)n1 [Example 10],[empty],[empty],,,,,,100 g/ha,,,300,,,,,,[empty],"Percent inhibition DIGSA (DIGSA (large crabgrass); PPI application, 10 g/ha): 0%; Percent inhibition DIGSA (DIGSA (large crabgrass); PPI application, 30 g/ha): 0%; Percent inhibition DIGSA (DIGSA (large crabgrass); PPI application, 100 g/ha): 90%; Percent inhibition DIGSA (DIGSA (large crabgrass); PPI application, 300 g/ha): 85%; Percent inhibition DIGSA (DIGSA (large crabgrass); PPI application, 900 g/ha): 100%; Percent inhibition PANDI (PANDI (fall panicum); PPI application, 10 g/ha): 0%; Percent inhibition PANDI (PANDI (fall panicum); PPI application, 30 g/ha): 50%; Percent inhibition PANDI (PANDI (fall panicum); PPI application, 100 g/ha): 100%; Percent inhibition PANDI (PANDI (fall panicum); PPI application, 300 g/ha): 100%; Percent inhibition PANDI (PANDI (fall panicum); PPI application, 900 g/ha): 100%; Percent inhibition VERPE ([4]; 10 g/ha): 70%; Percent inhibition VERPE ([4]; 100 g/ha): 100%; Percent inhibition VERPE ([4]; 300 g/ha): 100%; Percent inhibition VERPE ([4]; 900 g/ha): 100%; Percent inhibition AGSST ([5]; 10 g/ha): 90%; Percent inhibition AGSST ([5]; 30 g/ha): 70%; Percent inhibition AGSST ([5]; 100 g/ha): 100%; Percent inhibition AGSST ([5]; 300 g/ha): 100%; Percent inhibition AGSST ([5]; 900 g/ha): 100%"
